Patent US20150259295A1, “SUBSTITUTED PYRAZOLE COMPOUNDS AS LPAR ANTAGONISTS” (Hoffmann-La Roche Inc., priority 2012, published 2015)

How the values were obtained:
[1] = target: human recombinant LPA1 Lysophospholipid receptor (Homo sapiens, UniProt Q92633); assay: Calcium flux assay using FLIPR, LPA1R antagonist activity; type: cell-based; details: for IC50: ChemiScreen calcium-optimized stable cell line, FLIPR calcium flux, antagonist mode
Method: (§1) Calcium Flux Assay Using Fluorometric Imaging Plate Reader (FLIPR)
Cell Culture Conditions: The ChemiScreen Calcium-optimized stable cell line containing the human recombinant LPA1 Lysophospholipid receptor was purchased from Chemicon International, Inc./Millipore. The cells were cultured in DMEM-high glucose supplemented with 10% fetal bovine serum, 2 mM glutamine, 100 U/mL penicillin/100 μg/mL streptomycin, 1× non-essential amino acids, 10 mM HEPES and 0.25 mg/mL Geneticin. Cells were harvested with trypsin-EDTA and counted using ViaCount reagent. The cell suspension volume was adjusted to 2.0×10^5 cells/mL with complete growth media. Aliquots of 50 μL were dispensed into 384 well black/clear tissue culture treated plates (BD) and the microplates were placed in a 37° C. incubator overnight. The following day plates were used in the assay.
Dye Loading and Assay: Loading Buffer (FLIPR Calcium-4, Molecular Devices) was prepared by dissolving the contents of one bottle into 100 mL Hank's Balanced Salt Solution containing 20 mM HEPES and 2.5 mM probenecid. Plates were loaded onto Biotek plate washer and growth media was removed and replaced with 20 µL of Hank's Balanced Salt Solution containing 20 mM HEPES and 2.5 mM probenecid, followed by 25 μL of Loading Buffer. The plates were then incubated for 30 minutes at 37° C.
During the incubation, test compounds were prepared by adding 90 μL of HBSS/20 mM HEPES/0.1% BSA buffer to 2 μL of serially diluted compounds. To prepare serial dilutions, 10 mM stocks of compounds were prepared in 100% DMSO. The compound dilution plate was set up as follows: well #1 received 29 μL of stock compound and 31 μL DMSO; wells 2-10 received 40 μL of DMSO; mixed and transferred 20 μL of solution from well #1 into well #2; continued with 1:3 serial dilutions out 10 steps; transferred 2 μL of diluted compound into duplicate wells of 384 well “assay plate” and then added the 90 μL of buffer.
(§2) After incubation, both the cell and “assay” plates were brought to the FLIPR and 20 μL of the diluted compounds were transferred to the cell plates by the FLIPR. Compound addition was monitored by FLIPR to detect any agonist activity of the compounds. Plates were then incubated for 30 minutes at room temperature protected from light. After the incubation, plates were returned to the FLIPR and 20 μL of 4.5× concentrated agonist was added to the cell plates. During the assay, fluorescence readings were taken simultaneously from all 384 wells of the cell plate every 1.5 seconds. Five readings were taken to establish a stable baseline, then 20 μL of sample was rapidly (30 μL/sec) and simultaneously added to each well of the cell plate. The fluorescence was continuously monitored before, during and after sample addition for a total elapsed time of 100 seconds. Responses (increase in peak fluorescence) in each well following agonist addition was determined. The initial fluorescence reading from each well, prior to ligand stimulation, was used as zero baseline value for the data from that well. The responses were expressed as % inhibition of the buffer control.

LPA3R = target: T1, LPA3R (Homo sapiens, UniProt Q9UBY5); assay: LPA3R antagonist activity (Table 1, calcium flux FLIPR); type: cell-based
T1 sequence (Q9UBY5 1-353): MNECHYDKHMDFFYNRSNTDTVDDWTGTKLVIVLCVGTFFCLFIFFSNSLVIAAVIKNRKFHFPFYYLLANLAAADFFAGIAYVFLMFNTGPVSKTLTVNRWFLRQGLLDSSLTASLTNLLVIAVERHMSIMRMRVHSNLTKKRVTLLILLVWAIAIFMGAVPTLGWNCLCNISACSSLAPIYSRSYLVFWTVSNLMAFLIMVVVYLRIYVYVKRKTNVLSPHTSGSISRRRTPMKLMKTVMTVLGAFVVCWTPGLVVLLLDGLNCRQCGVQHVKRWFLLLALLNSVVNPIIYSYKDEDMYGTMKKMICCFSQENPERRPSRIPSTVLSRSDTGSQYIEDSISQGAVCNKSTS
Method: as §1, §2

Chain of human recombinant LPA1 Lysophospholipid receptor (Q92633 whole entry): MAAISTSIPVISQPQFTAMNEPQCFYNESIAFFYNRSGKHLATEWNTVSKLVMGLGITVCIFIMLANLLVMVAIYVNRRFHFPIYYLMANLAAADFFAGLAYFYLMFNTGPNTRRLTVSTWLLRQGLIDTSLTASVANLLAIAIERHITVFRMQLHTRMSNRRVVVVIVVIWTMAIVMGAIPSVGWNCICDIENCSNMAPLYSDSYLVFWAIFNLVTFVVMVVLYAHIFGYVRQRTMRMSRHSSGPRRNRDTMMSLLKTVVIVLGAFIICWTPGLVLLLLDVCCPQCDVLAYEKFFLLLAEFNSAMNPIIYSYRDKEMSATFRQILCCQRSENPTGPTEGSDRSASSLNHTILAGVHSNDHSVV

Row | Structure (SMILES) | inhibition at 10 µM ([1]; @ 10 μM) [%] | IC50 [1] [nM] | IC50 (LPA3R) [nM] | inhibition at 30 µM [1] [%]
1 | Cn1ncc(-c2ccc(-c3ccc(C4(C(=O)O)CC4)cc3)cc2)c1NC(=O)NCc1ccccc1 [Example 24, 1-{4′-[5-(3-Benzyl-ureido)-1-methyl-1H-pyrazol-4-yl]-biphenyl-4-yl}-cyclopropanecarboxylic acid] | 82.8 | 580 | > 30000 | –
2 | CC[C@@H](C)OC(=O)Nc1c(-c2ccc(-c3ccc(C4(C(=O)O)CC4)cc3)cc2)cnn1C [Example 14, (R)-1-{4′-[5-(sec-Butoxycarbonylamino)-1-methyl-1H-pyrazol-4-yl]-biphenyl-4-yl}-cyclopropanecarboxylic acid] | – | 38 | > 30000 | –
3 | C[C@@H](OC(=O)Nc1c(-c2ccc(-c3ccc(C4(C(=O)O)CC4)cc3)cc2)cnn1C)c1cccc(C(F)(F)F)c1 [Example 17, (R)-1-{4′-[1-Methyl-5-((1-(3-(trifluoromethyl)phenyl)ethoxy)carbonylamino)-1H-pyrazol-4-yl]-biphenyl-4-yl}-cyclopropanecarboxylic acid] | – | 42 | 478 | –
4 | COc1ccc(-c2cnn(C)c2NC(=O)O[C@H](C)c2ccccc2)cc1 [Example 8, [4-(4-Methoxy-phenyl)-2-methyl-2H-pyrazol-3-yl]-carbamic acid (R)-1-phenyl-ethyl ester] | – | > 30000 | > 30000 | –
5 | C[C@@H](OC(=O)Nc1c(-c2ccc(-c3ccccc3)cc2)cnn1C)c1ccccc1 [Example 7, (4-Biphenyl-4-yl-2-methyl-2H-pyrazol-3-yl)-carbamic acid (R)-1-phenyl-ethyl ester] | – | > 30000 | > 30000 | –

Results, then the molecule that gave them:

Row | inhibition at 10 µM ([1]; @ 10 μM) [%] | IC50 [1] [nM] | IC50 (LPA3R) [nM] | inhibition at 30 µM [1] [%] | Structure (SMILES)
6 | – | 35 | > 30000 | – | C[C@@H](OC(=O)Nc1c(-c2ccc(-c3ccc(CC(=O)O)cc3)cc2)cnn1C)c1ccccc1 [Example 2, {4′-[1-Methyl-5-((R)-1-phenyl-ethoxycarbonylamino)-1H-pyrazol-4-yl]-biphenyl-4-yl}-acetic acid]
7 | – | 1590 | > 30000 | 65.9 | CCOC(=O)C1(c2ccc(-c3ccc(-c4cnn(C)c4NC(=O)O[C@H](C)c4ccccc4)cc3)cc2)CC1 [Example 4, 1-{4′-[1-Methyl-5-((R)-1-phenyl-ethoxycarbonylamino)-1H-pyrazol-4-yl]-biphenyl-4-yl}-cyclopropanecarboxylic acid ethyl ester]
8 | – | 57 | 8260 | – | CC(OC(=O)Nc1c(-c2ccc(-c3ccc(C4(C(=O)O)CC4)cc3)cc2)cnn1C)c1ccc(F)cc1 (stereo not drawn) [Example 18, 1-{4′-[5-((1-(4-fluorophenyl)ethoxy)carbonylamino)-1-methyl-1H-pyrazol-4-yl]-biphenyl-4-yl}-cyclopropanecarboxylic acid]
9 | – | 107 | > 30000 | – | CC(C)[C@@H](C)OC(=O)Nc1c(-c2ccc(-c3ccc(C4(C(=O)O)CC4)cc3)cc2)cnn1C [Example 15, (R)-1-{4′-[5-(1,2-Dimethyl-propoxycarbonylamino)-1-methyl-1H-pyrazol-4-yl]-biphenyl-4-yl}-cyclopropanecarboxylic acid]
10 | – | 17500 | > 30000 | 64.8 | C[C@@H](OC(=O)Nc1c(-c2ccccc2)cnn1C)c1ccccc1 [Example 1, 2-Methyl-4-phenyl-2H-pyrazol-3-yl-carbamic acid (R)-1-phenyl-ethyl ester]
11 | – | 112 | 2470 | – | CC(OC(=O)Nc1c(-c2ccc(-c3ccc(C4(C(=O)O)CC4)cc3)cc2)cnn1C)c1ccccc1Cl (stereo not drawn) [Example 6, 1-(4′-{5-[1-(2-Chloro-phenyl)-ethoxycarbonylamino]-1-methyl-1H-pyrazol-4-yl}-biphenyl-4-yl)-cyclopropanecarboxylic acid]
12 | – | > 30000 | > 30000 | – | C[C@H](OC(=O)Nc1c(-c2ccccc2F)cnn1C)c1ccccc1Cl [Example 22, [4-(2-Fluoro-phenyl)-2-methyl-2H-pyrazol-3-yl]-carbamic acid (S)-1-(2-chloro-phenyl)-ethyl ester]
